Patent US20030212102A1, “Novel solid dispersion compositions” (priority 2002, published 2003)
Values after ≈ are worked out from the molar mass of the structure shown.

Test: Solubility and dissolution in simulated gastric fluid, USP Apparatus 2, non-sink conditions
Type: physicochemical
Settings: simulated gastric fluid without enzymes, 37 °C, thermodynamic from solid; simulated gastric fluid without enzyme, pH 1.2; read-out: in vitro solubility
Description: Physical matrix mixtures and melted carriers were made and tested to compare the baseline solubility and background absorbance to that of the solid dispersions. The resultant solid dispersion were yellow-orange hard solids with some air pockets formed by the cooling process. The dispersion solubility and dissolution rate were analyzed by USP Apparatus 2 dissolution. The dissolution was performed under the following conditions: SGF dissolution media, 0.1 M HCL without enzymes pH 1.2; non-sink conditions of 350-370 mL media; paddle speed of 50 rpm; temperature of 37° C.; 10 mL sample pull not replaced. Analysis of the (S)-(−)-N-(α-Ethylbenzyl)-3-hydroxy-2-phenylquinoline-4-carboxamide was performed using a UV spectrophotometer at 359 nm compared to standard solutions.

solubility: 31 µg/mL (≈ 81.1 µM)
SMILES: CC[C@H](NC(=O)c1c(O)c(-c2ccccc2)nc2ccccc12)c1ccccc1 [(S)-(−)-N-(α-Ethylbenzyl)-3-hydroxy-2-phenylquinoline-4-carboxamide]
